Data reported in publication PMC11249626, “Fluorophore-Labeled Pyrrolones Targeting the Intracellular Allosteric Binding Site of the Chemokine Receptor CCR1” (ACS Pharmacology & Translational Science, 2024).
Read-outs that look alike come from different tables or passages of the source.

Molecular target: T1, CCR2 (Homo sapiens, UniProt P41597)
T1 construct: host or cells: HEK293T, transient
T1 sequence (P41597 1-360 isoform P41597-2): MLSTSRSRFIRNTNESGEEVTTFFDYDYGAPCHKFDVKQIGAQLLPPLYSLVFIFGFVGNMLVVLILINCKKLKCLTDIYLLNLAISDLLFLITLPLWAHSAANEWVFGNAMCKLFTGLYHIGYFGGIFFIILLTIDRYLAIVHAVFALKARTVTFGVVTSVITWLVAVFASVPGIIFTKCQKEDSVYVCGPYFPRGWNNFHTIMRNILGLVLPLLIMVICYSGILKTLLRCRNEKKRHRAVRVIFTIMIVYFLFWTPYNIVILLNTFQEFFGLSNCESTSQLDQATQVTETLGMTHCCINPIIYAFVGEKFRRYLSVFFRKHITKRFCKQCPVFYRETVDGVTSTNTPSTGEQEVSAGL
Test: NanoBRET competition binding assay for CCR2 based on 7, as previously reported
Conditions: for inhibition at 20 µM: compound at 20 μM
Excerpt: With 6 (Figure 1), a first lead structure for intracellular CCR1 inhibition that features an approximately 20-fold CCR1 over CCR2 selectivity was previously discovered by Ortiz Zacarías et al.([33]) In order to discover new chemotypes for selective CCR1 over CCR2 inhibition, we aimed to apply our novel NanoBRET competition binding assay for CCR1 in combination with our recently published CCR2 competition binding assay based on 7.[47] In our first attempt, we screened a small in-house library enriched with intracellular GPCR ligands and structural analogues thereof. […] Additionally, we tested 23 for binding to the IABS of CCR9 and CXCR2 using our recently reported NanoBRET-based assay platform (Figure 6C).[44],[45] In the course of these studies, we detected no binding of 23 to CCR9 and CXCR2 up to a concentration of 20 μM. Since cell lineage-dependent effects have been observed for CCR1 antagonists,[59] we studied the CCR1 over CCR2 selectivity of 23 by using a previously reported radioligand binding assay with membrane preparations from osteosarcoma (U2OS) cells stably expressing human CCR1 or CCR2.[33] […] In agreement with these previous reports,[33] we observed a reduction in CCR1 over CCR2 selectivity when moving from membrane-based binding assays to cell-based functional assays. […] To investigate a potential signaling bias of 23, we tested the compound by means of a NanoBiT miniGi recruitment assay.[60] […] Thus, this indicated no strong signaling bias of 23 (Figures S9E and S10C). To elucidate the SAR of this new scaffold for selective CCR1 over CCR2 inhibition, we synthesized several analogues of 23 (24–40) and tested them by means of our NanoBRET competition binding assays (Schemes S2 and S3, Table 1, Figures 6F and S11). First, we aimed to examine the impact of the stereochemistry of 23 on CCR1 affinity. As for the structurally related pyrrolone 4, large differences in CCR2 affinity between the eutomer 4-[R] and the distomer 4-[S] were described.[61] […] Furthermore, we identified the 4-hydroxyphenethyl group at position 1 of the pyrrolone scaffold as highly important for CCR1 affinity and selectivity. Its presence seems to block CCR2 binding, also when combined with the structural features of the high-affinity CCR2 ligand 5, as exemplified by 24. Especially the 4-hydroxy group at this moiety is essential for CCR1 binding (see 25 and 26). […] In position 5 of the pyrrolone, several aromatic and aliphatic substituents were tolerated (see 31–35).

Compound | inhibition at 20 µM (read-out: % inh. of tracer binding, CCR2) | inhibition at 20 µM (read-out: CCR2 inhibition class (n.i.)) | Ki (NanoBRET competition, tracer 7)
O=C(C1=C(O)C(=O)N(CCc2ccc(O)cc2)C1c1ccc(F)cc1)c1ccccc1 (racemic) [compound 23] | -3% | < 10% | –
CC(=O)C1=C(O)C(=O)N(c2ccc(Br)cc2F)C1C1CCCCC1 (stereo not drawn) [compound 5, reference compound] | – | – | 17.9 nM
